Source: patent US20190375708A1 (VenatoRx Pharmaceuticals, Inc., priority 2018, published 2019)

Tests used:
[1] = system: HBV replication in HepAD38 cells; experiment: Anti-HBV replication assay in HepAD38 cells (QPCR of extracellular HBV DNA); type: cell-based, HBV (genotype D, serotype ayw); settings: Hepatitis B virus, 168 h, 7 days incubation, extracellular HBV DNA by QPCR, read-out: Anti-HBV EC50
Method: The anti-HBV activity of the Capsid Assembly Modulators (CAMs) was evaluated in a cell based assay utilizing the human hepatoma cell line HepAD38 (Ladner, S K., et al., 1998). HepAD38 cells were derived from the parental line, HepG2, that were stably transfected with a construct containing an HBV genome (genotype D, serotype ayw) under the control of a tetracycline repressible CMV promoter. Upon removal of tetracycline, viral pre-genomic RNA (pgRNA) and mRNAs are expressed and infectious viral particles are assembled and secreted into the culture medium providing a reliable, robust system to measure multiple steps of the HBV life cycle. Disruption of capsid formation results in reduced levels of DNA-containing virus particles that are released into the culture supernatant. To quantify the effect of CAMs on HBV replication, we developed a sensitive QPCR-based assay that measures extracellular HBV DNA levels upon treatment of HepAD38 cells with various concentrations of test compounds.
HepAD38 cells were maintained in DMEM/F12 medium containing 10% FBS, 400 μg/mL G418 and 0.3 μg/mL tetracycline (tet+ media) to maintain repression of HBV replication. To evaluate each compound, HepAD38 cells were seeded into 24-well collagen coated culture plates (Corning BioCoat) at a density of 200,000 cells per well in 1 mL of medium without tetracycline (tet-media) and allowed to adhere overnight at 37° C., 5% CO2 in a humidified incubator. The following day, media was refreshed and a dose range of each compound was prepared by performing 1 log10 serial dilutions in 100% DMSO at 200× the desired assay concentration. Dilutions were then added to the cells resulting in a final dose range of 1 μM to 10 μM and the plates were returned to the incubator. Following 7 days of incubation, culture supernatants were harvested and HBV DNA levels were evaluated by QPCR and compared to the vehicle treated control wells (i.e. DMSO alone).
To quantify HBV DNA levels, cell culture supernatants were diluted 1:10 in sterile, nuclease-free water (Gibco). The diluted supernatants were subsequently added to a PCR master mix containing 1× Roche Light Cycler Master Mix, 0.5 μM forward primer, 0.5 μM reverse primer (Fwd: 5′-[…] (SEQ ID NO 1); Rev: 5′-[…] (SEQ ID NO 2)), 0.2 μM Roche Universal Probe Library Probe 25. The volume was brought to 20 μL with nuclease-free water and amplification of the HBV target sequence was performed using a Roche LightCycler 480 QPCR instrument. PCR extended out to 45 cycles with each cycle consisting of a denaturation step at 95° C. for 10 sec., followed by an annealing step at 60° C. for 10 sec. and a brief extension step at 72° C. for 1 sec.
Extracellular HBV DNA levels, expressed in copies/mL, were determined by comparison to a standard curve (10^2-10^9 copies/mL) using the Roche LightCycler analysis software. These values were subsequently converted to percent inhibition of HBV replication by dividing the HBV DNA levels in the experimental samples with those obtained from the vehicle control (˜1-2×10^5 copies/mL). Potency, expressed as an EC50 (the effective concentration required to inhibit 50% of HBV replication), was calculated from the dose-response curve using a 4-parameter non-linear regression analysis (GraphPad Prism). The nucleoside analog inhibitor entecavir was used as a positive control to validate each assay run. The EC50 value of entecavir in the HepAD38 assay was 0.5 nM, as previously reported in the literature.

[2] = In vitro cytotoxicity assay (MTT cell viability) in HepG2 cells; type: cell-based, human; settings: human
Method: To evaluate antiviral selectivity, the cytotoxic activity of each compound was determined using a standard cell viability assay performed on the parental HepG2 cell line. Cell viability was determined by measuring the conversion of 3-(4,5-dimethylthiazol-2-yl)-2,5-diphenyltetrazolium bromide (MTT) to the insoluble formazan salt crystal that occurs in live cells. Briefly, HepG2 cells were seeded in 96-well plates at a density of 20,000 cells per well in EMEM+10% FBS (complete growth medium) and allowed to adhere overnight in a 37° C., 5% CO2 humidified incubator. The next day, test agents were prepared by performing 8 half-log10 serial dilutions in 100% DMSO at 200× the final desired concentration in the assay. Compounds were tested over a range of concentrations from 30 μM to 1.0 nM in the assay. HepG2 cells were incubated in the presence of various concentrations of CAMs for 7 days in a 37° C., 5% CO2 humidified incubator. At the completion of the 7-day incubation period, MTT reagent was added to each well and the mixture was incubated for an additional 3-4 hours. At the completion of the incubation period, all wells were aspirated to remove the culture medium. The formazan crystals were solubilized from the cell monolayers with 100% DMSO. Plates were briefly mixed on an orbital shaker and absorbance was measured at 492 nm using a Perkin-Elmer EnVision multi-label plate reader. All absorbance values were converted to a percentage of the signal obtained from the vehicle treated controls. Absorbance values at 492 nm are directly proportional to the number of viable cells present in the sample. A CC50 value (cytotoxic concentration that results in loss of 50% cell viability) was calculated from the dose-response curve by 4-parameter, non-linear regression analysis using the GraphPad Prism software. The positive control compound, staurosporine, reduced the viability of HepG2 cells in a dose-dependent manner (CC50=100 nM).

| SMILES | EC50 [1] | CC50 at 7 days [2] |
| --- | --- | --- |
| Cc1cc(NC(=O)c2c(C)c(C(=O)C(=O)N[C@H]3CC[C@H](O)C3)n(CCF)c2C)ccc1F [Example 194, N-(4-fluoro-3-methylphenyl)-1-(2-fluoroethyl)-5-(2-(((1S,3S)-3-hydroxycyclopentyl)amino)-2-oxoacetyl)-2,4-dimethyl-1H-pyrrole-3-carboxamide] | 0.05 to 0.499 µM | > 30 µM |
| Cc1cc(NC(=O)c2cc(C(=O)C(=O)NC(C)(C)C)n3c2CCCC3)ccc1F [Example 393, 3-(2-(tert-butylamino)-2-oxoacetyl)-N-(4-fluoro-3-methylphenyl)-5,6,7,8-tetrahydroindolizine-1-carboxamide] | 0.05 to 0.499 µM | > 30 µM |
| Cc1cc(NC(=O)c2c(C)c(C(=O)C(=O)NC3CCN(C4COC4)CC3)n(C)c2C)ccc1F [Example 652, N-(4-fluoro-3-methylphenyl)-1,2,4-trimethyl-5-(2-((1-(oxetan-3-yl)piperidin-4-yl)amino)-2-oxoacetyl)-1H-pyrrole-3-carboxamide] | < 0.05 µM | > 30 µM |
| Cc1cc(NC(=O)c2c(C)c(C(=O)C(=O)NC(C)c3nn[nH]n3)n(C)c2C)ccc1F (centres unmarked) [Example 79, 5-(2-((1-(2H-tetrazol-5-yl)ethyl)amino)-2-oxoacetyl)-N-(4-fluoro-3-methylphenyl)-1,2,4-trimethyl-1H-pyrrole-3-carboxamide] | 0.05 to 0.499 µM | > 30 µM |
| Cc1cc(NC(=O)c2c(C)c(C(=O)C(=O)N[C@H]3C[C@H](O)C34CCOCC4)n(C)c2C)ccc1F [Example 620, N-(4-fluoro-3-methylphenyl)-5-(2-(((1S,3S)-3-hydroxy-7-oxaspiro[3.5]nonan-1-yl)amino)-2-oxoacetyl)-1,2,4-trimethyl-1H-pyrrole-3-carboxamide] | < 0.05 µM | > 30 µM |
| Cc1c(C(=O)Nc2nccs2)c2n(c1C(=O)C(=O)NC1(CO)CCC1)CCCC2 [Example 751] | 0.05 to 0.499 µM | > 30 µM |
| Cc1cc(NC(=O)c2c(C)c(C(=O)C(=O)NC3(C)CC(F)(F)C3)n(C)c2C)ccc1F [Example 238, 5-(2-((3,3-difluoro-1-methylcyclobutyl)amino)-2-oxoacetyl)-N-(4-fluoro-3-methylphenyl)-1,2,4-trimethyl-1H-pyrrole-3-carboxamide] | < 0.05 µM | > 30 µM |
| CCOC(=O)[C@@H](CO)NC(=O)C(=O)c1c(C)c(C(=O)Nc2ccc(F)c(C)c2)c(C)n1C [Example 26, ethyl (2-(4-((4-fluoro-3-methylphenyl)carbamoyl)-1,3,5-trimethyl-1H-pyrrol-2-yl)-2-oxoacetyl)-D-serinate] | < 0.05 µM | > 30 µM |
| COc1c(C(=O)Nc2ccc(F)c(F)c2)c(C)n(C)c1C(=O)C(=O)NCC(C)(C)O [Example 382, N-(3,4-difluorophenyl)-5-(2-((2-hydroxy-2-methylpropyl)amino)-2-oxoacetyl)-4-methoxy-1,2-dimethyl-1H-pyrrole-3-carboxamide] | > 1 µM | > 30 µM |
| Cc1c(C(=O)Nc2ccc(F)c(Cl)c2)c(C)n(C)c1C(=O)C(=O)NC(C)(C)CN1CCOCC1 [Example 332, N-(3-chloro-4-fluorophenyl)-1,2,4-trimethyl-5-(2-((2-methyl-1-morpholinopropan-2-yl)amino)-2-oxoacetyl)-1H-pyrrole-3-carboxamide] | < 0.05 µM | > 30 µM |
| Cc1c(C(=O)Nc2ccc(F)c(F)c2)c(C)n(C)c1C(=O)C(=O)Nc1ccc(F)c(F)c1 [Example 293, N-(3,4-difluorophenyl)-5-(2-((3,4-difluorophenyl)amino)-2-oxoacetyl)-1,2,4-trimethyl-1H-pyrrole-3-carboxamide] | < 0.05 µM | 5 to 30 µM |
| Cc1cnc(C(C)(C)NC(=O)C(=O)c2c(C)c(C(=O)Nc3ccc(F)c(C)c3)c(C)n2C)s1 [Example 84, N-(4-fluoro-3-methylphenyl)-1,2,4-trimethyl-5-(2-((2-(5-methylthiazol-2-yl)propan-2-yl)amino)-2-oxoacetyl)-1H-pyrrole-3-carboxamide] | < 0.05 µM | > 30 µM |
| Cc1cc(NC(=O)c2c(C)c(C(=O)C(=O)N[C@@H](C)C(C)(C)C)n(C)c2C)ccc1F [Example 88, (S)-5-(2-((3,3-dimethylbutan-2-yl)amino)-2-oxoacetyl)-N-(4-fluoro-3-methylphenyl)-1,2,4-trimethyl-1H-pyrrole-3-carboxamide] | < 0.05 µM | 5 to 30 µM |
| Cc1c(C(=O)Nc2cncc(Cl)c2)c(C)n(C)c1C(=O)C(=O)N[C@H]1CC[C@@H](O)CC1 [Example 726, N-(5-chloropyridin-3-yl)-5-(2-(((1s,4s)-4-hydroxycyclohexyl)amino)-2-oxoacetyl)-1,2,4-trimethyl-1H-pyrrole-3-carboxamide] | < 0.05 µM | > 30 µM |
| Cc1cc(NC(=O)c2c(C)c(C(=O)C(=O)N[C@@H](C)C(F)(F)F)n3c2CCCC3)cnc1F [Example 470, (S)-N-(6-fluoro-5-methylpyridin-3-yl)-2-methyl-3-(2-oxo-2-((1,1,1-trifluoropropan-2-yl)amino)acetyl)-5,6,7,8-tetrahydroindolizine--1 carboxamide] | 0.5 to 1 µM | 5 to 30 µM |
| Cc1cc(NC(=O)c2c(C)c(C(=O)C(=O)N[C@@H]3CCN(S(C)(=O)=O)C3)n(C)c2C)ccc1F [Example 665, (R)-N-(4-fluoro-3-methylphenyl)-1,2,4-trimethyl-5-(2-((1-(methylsulfonyl)pyrrolidin-3-yl)amino)-2-oxoacetyl)-1H-pyrrole-3-carboxamide] | < 0.05 µM | 5 to 30 µM |
| Cc1cc(NC(=O)c2c(C)c(C(=O)C(=O)NC3(c4noc(-c5cccs5)n4)CCCCC3)n(C)c2C)ccc1F [Example 634] | < 0.05 µM | > 30 µM |
| Cc1cc(NC(=O)c2c(Cl)c(C(=O)C(=O)N[C@@H]3CCC[C@@H]3O)n(C)c2C)ccc1F [Example 367, 4-chloro-N-(4-fluoro-3-methylphenyl)-5-(2-(((1R,2S)-2-hydroxycyclopentyl)aminO)-2-oxoacetyl)-1,2-dimethyl-1H-pyrrole-3-carboxamide] | < 0.05 µM | 5 to 30 µM |
| CCCOC1(CNC(=O)C(=O)c2c(C)c(C(=O)Nc3ccc(F)c(C)c3)c(C)n2C)CCCCC1 [Example 336, N-(4-fluoro-3-methylphenyl)-1,2,4-trimethyl-5-(2-oxo-2-(((1-propoxycyclohexyl)methyl)amino)acetyl)-1H-pyrrole-3-carboxamide] | < 0.05 µM | 5 to 30 µM |
